Several values for one entry are separate records, joined by “and”; a condition that tells them apart may be missing. Equal entries are not always repeated.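 48-hour exposure; five concentrations; linearly interpolated endpoints. GI50 = concentration required for 50% inhibition of growth. TGI: total growth inhibition.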
Legend:
Assay in all cases: NCI anticancer screen, dose series, 48 h
[1] = system: K-562 leukemia
[2] = system: KM20L2 colon
[3] = system: NCI-H23 lung
[4] = system: SF-295 CNS
[5] = system: SN12C renal
[6] = system: SNB-19 CNS
[7] = system: SNB-78 CNS
[8] = system: SW-620 colon
[9] = system: HOP-62 NSCLC
[10] = system: PC-3 prostate

Structure (SMILES)	TGI [1]	TGI [2]	TGI [3]	TGI [4]	TGI [5]	TGI [6]	TGI [7]	TGI [8]	TGI [9]	GI50 [9]	GI50 [1]	GI50 [3]	GI50 [10]	TGI [10]	GI50 [4]	GI50 [5]	GI50 [6]	GI50 [8]
O=C(O)CSc1n[nH]c(-c2ccccc2O)n1	> 100 µM	> 100 µM	> 100 µM	> 100 µM	> 100 µM	> 100 µM	> 100 µM	> 100 µM	–	–	–	–	–	–	–	–	–	–
CC(=O)[O-].CC(=O)[O-].O=C(N/N=C/c1cc(Cl)cc(Cl)c1O)c1ccncc1.[Cu+2]	> 100 µM	> 100 µM	> 100 µM	> 100 µM	> 100 µM	> 100 µM	–	> 100 µM	> 100 µM	–	–	–	–	–	–	–	–	–
CN(C)C(=S)/N=c1\ssc(=S)n1C1CCCCC1	52.6 µM	> 100 µM	> 100 µM	> 100 µM	> 100 µM	> 100 µM	–	28.4 µM	> 100 µM	–	–	–	–	–	–	–	–	–
COc1cc2c(cc1OC)-c1cc(OC)c(OC)cc1C(CN(C)C)C2 (stereo not drawn)	> 10 µM	–	> 10 µM	> 10 µM	> 10 µM	> 10 µM	–	> 10 µM	> 10 µM	> 10 µM	> 10 µM	> 10 µM	> 10 µM	> 10 µM	> 10 µM	> 10 µM	> 10 µM	> 10 µM
CN1CCN(C(=O)COc2ccc(C34CC5CC(CC(C5)C3)C4)cc2)CC1	46.5 µM	–	36.7 µM	27.8 µM	26.1 µM	26.8 µM	–	29.6 µM	32.5 µM	14.5 µM	4.38 µM	15.3 µM	4.87 µM	21.6 µM	13.5 µM	12.6 µM	13.6 µM	12.8 µM
Br[Se]c1ccccn1	72 µM	–	39.3 µM	17 µM	33.1 µM	24.8 µM	–	51.4 µM	12.2 µM	–	–	–	–	30 µM	–	–	–	–
COc1ccc(/C=C/COC(C)=O)cc1OC	> 100 µM	> 100 µM	> 100 µM	> 100 µM	> 100 µM	> 100 µM	> 100 µM	> 100 µM	–	–	–	–	–	–	–	–	–	–
O=C(O)C(Cl)Cl	> 10000 µM	–	> 10000 µM	> 10000 µM	> 10000 µM	> 10000 µM	–	> 10000 µM	> 10000 µM	> 10000 µM	6300 µM and > 10000 µM	> 10000 µM	> 10000 µM	> 10000 µM	4230 µM and > 10000 µM	8180 µM and > 10000 µM	7520 µM and > 10000 µM	> 10000 µM
CCOC(=O)n1cc(C2=C(c3ccc(OC)c(OC)c3)COC2=O)c2ccccc21	> 100 µM	–	> 100 µM	> 100 µM	> 100 µM	> 100 µM	–	> 100 µM	> 100 µM	0.075 µM	0.0325 µM	0.157 µM	0.0404 µM	> 100 µM	0.0388 µM	0.0681 µM	0.0551 µM	0.0417 µM
O=C1NC(=NCc2ccccc2)S/C1=C\c1ccc2ncccc2c1	> 25 µM	–	> 25 µM	> 25 µM	> 25 µM	> 25 µM	–	> 25 µM	> 25 µM	> 25 µM	> 25 µM	> 25 µM	> 25 µM	> 25 µM	> 25 µM	> 25 µM	> 25 µM	> 25 µM
CC(=O)OC1(C)N=NC2(CCCCC2)O1 (stereo not drawn)	> 100 µM	–	> 100 µM	> 100 µM	> 100 µM	> 100 µM	–	> 100 µM	> 100 µM	–	–	–	–	> 100 µM	–	–	–	–
Cc1cc(Nc2ccc(C)c(Cl)c2)n2nc(C(F)(F)F)nc2n1	> 100 µM	–	> 100 µM	74 µM	52.9 µM	> 100 µM	–	> 100 µM	98.9 µM	30.8 µM	16 µM	29.4 µM	22 µM	> 100 µM	21.2 µM	18.8 µM	29.4 µM	30.2 µM
CN(C)c1ccc(/C=N/NC(=S)Nc2ccccc2)cc1	> 100 µM	–	> 100 µM	> 100 µM	> 100 µM	> 100 µM	–	> 100 µM	> 100 µM	–	–	–	–	> 100 µM	–	–	–	–
O=[N+]([O-])c1cc([N+](=O)[O-])c(C(F)(F)F)cc1NN=C(c1ccc(O)cc1)c1ccc(O)cc1	15.7 µM	–	31 µM	3.81 µM	13.4 µM	16.6 µM	–	12.3 µM	35.8 µM	3.51 µM	2.42 µM	4.23 µM	3.11 µM	78 µM	1.57 µM	3.3 µM	4.67 µM	3.44 µM
CC(C)[C@@H]1NC(=O)[C@]2(C)CSC(=N2)c2ccnc(c2)CNC(=O)C[C@@H](/C=C/CCS)OC1=O	> 100 µM	–	> 31.4 µM	0.322 µM	> 100 µM	> 39.4 µM	–	7.65 µM	–	0.0525 µM	0.637 µM	0.303 µM	0.0669 µM	> 100 µM	0.0623 µM	0.711 µM	0.283 µM	0.448 µM
O=C1OCC2=C1C(c1cccc(Br)c1)c1cc3c(cc1N2CCO)OCCO3 (stereo not drawn)	> 27.7 µM	–	> 44.5 µM	0.417 µM	> 27.1 µM	> 50 µM	–	> 27.9 µM	18.7 µM	0.0891 µM	0.055 µM	0.0911 µM	0.0546 µM	8.74 µM	0.0184 µM	0.188 µM	0.0846 µM	0.0527 µM
C/C=C/[C@@H]1O[C@@H]2COC(=O)C2=C[C@@H]1O	–	–	37.3 µM	> 56.4 µM	31.4 µM	> 57 µM	–	5.07 µM	43 µM	23.5 µM	2.53 µM	14.1 µM	18.7 µM	36.6 µM	29.9 µM	15.4 µM	24.2 µM	2.13 µM
C[C@@H]1CC[C@H]2C(C)(C)[C@H]3C[C@@]12CC[C@@]3(C)O	> 100 µM	–	> 100 µM	> 100 µM	60.5 µM	> 100 µM	–	> 100 µM	> 100 µM	–	–	–	–	> 100 µM	–	–	–	–
COc1cc(-c2nn(-c3cccc(NC(=O)c4ccccc4)c3)cc2-c2ccncc2)ccc1Cl	> 100 µM	–	> 100 µM	1.44 µM	> 100 µM	> 100 µM	–	> 36.3 µM	> 100 µM	2.49 µM	0.39 µM	1.12 µM	0.333 µM	> 33.5 µM	0.315 µM	1.45 µM	1.37 µM	0.451 µM

— PubChem BioAssay (NCI)
